Here are results for seven molecules from ChEMBL document CHEMBL5537170, “Design, Synthesis, and Anti-Osteoporotic Characterization of Arginine N-Glycosylated Teriparatide Analogs via the Silver-catalyzed Solid-Phase Glycosylation Strategy” (J Med Chem, 2024).

Calls of active or inactive are those of the source. No cut-off for these calls is given here.

Series [1] has as its system Pre-Osteoblast. In words: Induction of osteoblast differentiation in C57BL/6 mouse Pre-Osteoblast cells assessed as increase in bone mineralization by measuring increase in red calcium nodules measured after 14 days by Alizarin Red S staining based analysis. As to conditions: time 14.0 day. Format: functional, cell-based.
The nature of series [2]: Induction of osteoblast differentiation in C57BL/6 mouse Pre-Osteoblast cells assessed as fold increase in ephrinB2 protein expression at 50 nM measured after 72 hrs by Western blot analysis relative to control. Format: functional.
For series [3], the system named is Mus musculus. In words: Anti-osteoporosis activity in ovariectomized C57BL/6J mouse model assessed as increase in bone surface density in femur at 20 microg/kg, sc administered 3 times a week for 8 weeks by micro-CT analysis. The note with it: dose 20.0 µg/kg. Format: functional, organism-based.
Series [4] is described as follows: Induction of osteoblast differentiation in C57BL/6 mouse Pre-Osteoblast cells assessed as fold increase in ephrinB2 protein expression at 200 nM measured after 72 hrs by Western blot analysis relative to control. Format: functional.
For series [5], the system named is Mus musculus. The experiment in a line: Anti-osteoporosis activity in ovariectomized C57BL/6J mouse model assessed as increase in bone volume percent in femur at 20 microg/kg, sc administered 3 times a week for 8 weeks by micro-CT analysis. The note with it: dose 20.0 µg/kg. Format: functional, organism-based.
The subject of series [6] is Pre-Osteoblast. In words: Induction of osteoblast differentiation in C57BL/6 mouse Pre-Osteoblast cells assessed as increase in ALP expression by measuring increase in ALP-positive cells with purple color at 50 nM measured after 2 days by ALP staining based analysis. Format: functional, cell-based. The note with it: time 2.0 day.
Series [7] can be described thus: Cytotoxicity against C57BL/6 mouse Pre-Osteoblast cells assessed as cell death upto 5 uM incubated for 4 days by CCK-8 assay. Format: toxicity, cell-based. As to conditions: 96 h, time 4 day.
Series [8] in a line: Induction of osteoblast differentiation in C57BL/6 mouse Pre-Osteoblast cells assessed as fold increase in ephrinB2 protein expression at 100 nM measured after 72 hrs by Western blot analysis relative to control. Format: functional.
Series [9] concerns Mus musculus. The experiment in a line: Anti-osteoporosis activity in ovariectomized C57BL/6J mouse model assessed as increase in trabecular number in femur at 20 microg/kg, sc administered 3 times a week for 8 weeks by micro-CT analysis. As to conditions: dose 20.0 µg/kg. Format: functional, organism-based.
The subject of series [10] is Pre-Osteoblast. In words: Induction of osteoblast differentiation in C57BL/6 mouse Pre-Osteoblast cells assessed as increase in bone mineralization by measuring increase in area of calcium nodules measured after 14 days by Alizarin Red S staining based analysis. Format: functional, cell-based. As to conditions: time 14.0 day.
A short description of series [11]: Stability in human serum assessed as compound remaining at 1 mg/ml measured after 12 hrs by HPLC analysis. Format: ADME, cell-free. As to conditions: read-out: Stability.

Regarding `CC[C@H](C)[C@H](NC(=O)[C@H](CCC(=O)O)NC(=O)[C@H](CO)NC(=O)[C@@H](NC(=O)[C@H](CO)NC(C)=O)C(C)C)C(=O)N[C@@H](CCC(N)=O)C(=O)N[C@@H](CC(C)C)C(=O)N[C@@H](CCSC)C(=O)N[C@@H](Cc1cnc[nH]1)C(=O)N[C@@H](CC(N)=O)C(=O)N[C@@H](CC(C)C)C(=O)NCC(=O)N[C@@H](CCCCN)C(=O)N[C@@H](Cc1cnc[nH]1)C(=O)N[C@@H](CC(C)C)C(=O)N[C@@H](CC(N)=O)C(=O)N[C@@H](CO)C(=O)N[C@@H](CCSC)C(=O)N[C@@H](CCC(=O)O)C(=O)N[C@@H](CCCNC(=N)N[C@@H]1OC[C@@H](O)[C@H](O)[C@H]1O)C(=O)N[C@H](C(=O)N[C@@H](CCC(=O)O)C(=O)N[C@@H](Cc1c[nH]c2ccccc12)C(=O)N[C@@H](CC(C)C)C(=O)N[C@@H](CCCNC(=N)N)C(=O)N[C@@H](CCCCN)C(=O)N[C@@H](CCCCN)C(=O)N[C@@H](CC(C)C)C(=O)N[C@@H](CCC(N)=O)C(=O)N[C@@H](CC(=O)O)C(=O)N[C@H](C(=O)N[C@@H](Cc1cnc[nH]1)C(=O)N[C@@H](CC(N)=O)C(=O)N[C@@H](Cc1ccccc1)C(N)=O)C(C)C)C(C)C`, the outcome in the series with Pre-Osteoblast [1], in the series with Mus musculus [3], with Mus musculus [5], in the series with Pre-Osteoblast [6], in the series with Mus musculus [9] and in the series on Pre-Osteoblast [10] was Active. Also, the “fold change (FC)” value in series [2] worked out at 1.04; in series [4], 1.29; in series [8], 1.28. Besides, in series [7], the Activity result was “Non-Toxic”. The remaining at 12 h, 1 mg/ml in series [11] was over 75%.
Take `CC[C@H](C)[C@H](NC(=O)[C@H](CCC(=O)O)NC(=O)[C@H](CO)NC(=O)[C@@H](NC(=O)[C@H](CO)NC(C)=O)C(C)C)C(=O)N[C@@H](CCC(N)=O)C(=O)N[C@@H](CC(C)C)C(=O)N[C@@H](CCSC)C(=O)N[C@@H](Cc1cnc[nH]1)C(=O)N[C@@H](CC(N)=O)C(=O)N[C@@H](CC(C)C)C(=O)NCC(=O)N[C@@H](CCCCN)C(=O)N[C@@H](Cc1cnc[nH]1)C(=O)N[C@@H](CC(C)C)C(=O)N[C@@H](CC(N)=O)C(=O)N[C@@H](CO)C(=O)N[C@@H](CCSC)C(=O)N[C@@H](CCC(=O)O)C(=O)N[C@@H](CCCNC(=N)N)C(=O)N[C@H](C(=O)N[C@@H](CCC(=O)O)C(=O)N[C@@H](Cc1c[nH]c2ccccc12)C(=O)N[C@@H](CC(C)C)C(=O)N[C@@H](CCCNC(=N)N[C@H]1O[C@H](CO)[C@@H](O)[C@H](O)[C@@H]1O)C(=O)N[C@@H](CCCCN)C(=O)N[C@@H](CCCCN)C(=O)N[C@@H](CC(C)C)C(=O)N[C@@H](CCC(N)=O)C(=O)N[C@@H](CC(=O)O)C(=O)N[C@H](C(=O)N[C@@H](Cc1cnc[nH]1)C(=O)N[C@@H](CC(N)=O)C(=O)N[C@@H](Cc1ccccc1)C(N)=O)C(C)C)C(C)C`: in [7], the Activity result was “Non-Toxic”.
On the same count and under the same terms, the same measure for `CC[C@H](C)[C@H](NC(=O)[C@H](CCC(=O)O)NC(=O)[C@H](CO)NC(=O)[C@@H](NC(=O)[C@H](CO)NC(C)=O)C(C)C)C(=O)N[C@@H](CCC(N)=O)C(=O)N[C@@H](CC(C)C)C(=O)N[C@@H](CCSC)C(=O)N[C@@H](Cc1cnc[nH]1)C(=O)N[C@@H](CC(N)=O)C(=O)N[C@@H](CC(C)C)C(=O)NCC(=O)N[C@@H](CCCCN)C(=O)N[C@@H](Cc1cnc[nH]1)C(=O)N[C@@H](CC(C)C)C(=O)N[C@@H](CC(N)=O)C(=O)N[C@@H](CO)C(=O)N[C@@H](CCSC)C(=O)N[C@@H](CCC(=O)O)C(=O)N[C@@H](CCCNC(=N)N)C(=O)N[C@H](C(=O)N[C@@H](CCC(=O)O)C(=O)N[C@@H](Cc1c[nH]c2ccccc12)C(=O)N[C@@H](CC(C)C)C(=O)N[C@@H](CCCNC(=N)N[C@@H]1O[C@H](CO)[C@@H](O)[C@H]1O)C(=O)N[C@@H](CCCCN)C(=O)N[C@@H](CCCCN)C(=O)N[C@@H](CC(C)C)C(=O)N[C@@H](CCC(N)=O)C(=O)N[C@@H](CC(=O)O)C(=O)N[C@H](C(=O)N[C@@H](Cc1cnc[nH]1)C(=O)N[C@@H](CC(N)=O)C(=O)N[C@@H](Cc1ccccc1)C(N)=O)C(C)C)C(C)C`: “Non-Toxic”; for `CC[C@H](C)[C@H](NC(=O)[C@H](CCC(=O)O)NC(=O)[C@H](CO)NC(=O)[C@@H](NC(=O)[C@H](CO)NC(C)=O)C(C)C)C(=O)N[C@@H](CCC(N)=O)C(=O)N[C@@H](CC(C)C)C(=O)N[C@@H](CCSC)C(=O)N[C@@H](Cc1cnc[nH]1)C(=O)N[C@@H](CC(N)=O)C(=O)N[C@@H](CC(C)C)C(=O)NCC(=O)N[C@@H](CCCCN)C(=O)N[C@@H](Cc1cnc[nH]1)C(=O)N[C@@H](CC(C)C)C(=O)N[C@@H](CC(N)=O)C(=O)N[C@@H](CO)C(=O)N[C@@H](CCSC)C(=O)N[C@@H](CCC(=O)O)C(=O)N[C@@H](CCCNC(=N)N)C(=O)N[C@H](C(=O)N[C@@H](CCC(=O)O)C(=O)N[C@@H](Cc1c[nH]c2ccccc12)C(=O)N[C@@H](CC(C)C)C(=O)N[C@@H](CCCNC(=N)N[C@@H]1O[C@H](CO)[C@@H](O)[C@H](O)[C@H]1O)C(=O)N[C@@H](CCCCN)C(=O)N[C@@H](CCCCN)C(=O)N[C@@H](CC(C)C)C(=O)N[C@@H](CCC(N)=O)C(=O)N[C@@H](CC(=O)O)C(=O)N[C@H](C(=O)N[C@@H](Cc1cnc[nH]1)C(=O)N[C@@H](CC(N)=O)C(=O)N[C@@H](Cc1ccccc1)C(N)=O)C(C)C)C(C)C`: “Non-Toxic”.
For the molecule `CC[C@H](C)[C@H](NC(=O)[C@H](CCC(=O)O)NC(=O)[C@H](CO)NC(=O)[C@@H](NC(=O)[C@H](CO)NC(C)=O)C(C)C)C(=O)N[C@@H](CCC(N)=O)C(=O)N[C@@H](CC(C)C)C(=O)N[C@@H](CCSC)C(=O)N[C@@H](Cc1cnc[nH]1)C(=O)N[C@@H](CC(N)=O)C(=O)N[C@@H](CC(C)C)C(=O)NCC(=O)N[C@@H](CCCCN)C(=O)N[C@@H](Cc1cnc[nH]1)C(=O)N[C@@H](CC(C)C)C(=O)N[C@@H](CC(N)=O)C(=O)N[C@@H](CO)C(=O)N[C@@H](CCSC)C(=O)N[C@@H](CCC(=O)O)C(=O)N[C@@H](CCCNC(=N)N[C@@H]1O[C@H](CO)[C@@H](O[C@@H]2O[C@H](CO)[C@H](O)[C@H](O)[C@H]2O)[C@H](O)[C@H]1O)C(=O)N[C@H](C(=O)N[C@@H](CCC(=O)O)C(=O)N[C@@H](Cc1c[nH]c2ccccc12)C(=O)N[C@@H](CC(C)C)C(=O)N[C@@H](CCCNC(=N)N[C@@H]1O[C@H](CO)[C@@H](O[C@@H]2O[C@H](CO)[C@H](O)[C@H](O)[C@H]2O)[C@H](O)[C@H]1O)C(=O)N[C@@H](CCCCN)C(=O)N[C@@H](CCCCN)C(=O)N[C@@H](CC(C)C)C(=O)N[C@@H](CCC(N)=O)C(=O)N[C@@H](CC(=O)O)C(=O)N[C@H](C(=O)N[C@@H](Cc1cnc[nH]1)C(=O)N[C@@H](CC(N)=O)C(=O)N[C@@H](Cc1ccccc1)C(N)=O)C(C)C)C(C)C`, the Activity entry in series [7] is given as “Non-Toxic”.
On the same count and under the same terms, then `CC[C@H](C)[C@H](NC(=O)[C@H](CCC(=O)O)NC(=O)[C@H](CO)NC(=O)[C@@H](NC(=O)[C@H](CO)NC(C)=O)C(C)C)C(=O)N[C@@H](CCC(N)=O)C(=O)N[C@@H](CC(C)C)C(=O)N[C@@H](CCSC)C(=O)N[C@@H](Cc1cnc[nH]1)C(=O)N[C@@H](CC(N)=O)C(=O)N[C@@H](CC(C)C)C(=O)NCC(=O)N[C@@H](CCCCN)C(=O)N[C@@H](Cc1cnc[nH]1)C(=O)N[C@@H](CC(C)C)C(=O)N[C@@H](CC(N)=O)C(=O)N[C@@H](CO)C(=O)N[C@@H](CCSC)C(=O)N[C@@H](CCC(=O)O)C(=O)N[C@@H](CCCNC(=N)N)C(=O)N[C@H](C(=O)N[C@@H](CCC(=O)O)C(=O)N[C@@H](Cc1c[nH]c2ccccc12)C(=O)N[C@@H](CC(C)C)C(=O)N[C@@H](CCCNC(=N)N[C@@H]1O[C@H](CO)[C@H](O)[C@H](O)[C@H]1O)C(=O)N[C@@H](CCCCN)C(=O)N[C@@H](CCCCN)C(=O)N[C@@H](CC(C)C)C(=O)N[C@@H](CCC(N)=O)C(=O)N[C@@H](CC(=O)O)C(=O)N[C@H](C(=O)N[C@@H](Cc1cnc[nH]1)C(=O)N[C@@H](CC(N)=O)C(=O)N[C@@H](Cc1ccccc1)C(N)=O)C(C)C)C(C)C`, with “Non-Toxic”; and `CC[C@H](C)[C@H](NC(=O)[C@H](CCC(=O)O)NC(=O)[C@H](CO)NC(=O)[C@@H](NC(=O)[C@H](CO)NC(C)=O)C(C)C)C(=O)N[C@@H](CCC(N)=O)C(=O)N[C@@H](CC(C)C)C(=O)N[C@@H](CCSC)C(=O)N[C@@H](Cc1cnc[nH]1)C(=O)N[C@@H](CC(N)=O)C(=O)N[C@@H](CC(C)C)C(=O)NCC(=O)N[C@@H](CCCCN)C(=O)N[C@@H](Cc1cnc[nH]1)C(=O)N[C@@H](CC(C)C)C(=O)N[C@@H](CC(N)=O)C(=O)N[C@@H](CO)C(=O)N[C@@H](CCSC)C(=O)N[C@@H](CCC(=O)O)C(=O)N[C@@H](CCCNC(=N)N[C@H]1O[C@H](CO)[C@@H](O)[C@H](O)[C@@H]1O)C(=O)N[C@H](C(=O)N[C@@H](CCC(=O)O)C(=O)N[C@@H](Cc1c[nH]c2ccccc12)C(=O)N[C@@H](CC(C)C)C(=O)N[C@@H](CCCNC(=N)N)C(=O)N[C@@H](CCCCN)C(=O)N[C@@H](CCCCN)C(=O)N[C@@H](CC(C)C)C(=O)N[C@@H](CCC(N)=O)C(=O)N[C@@H](CC(=O)O)C(=O)N[C@H](C(=O)N[C@@H](Cc1cnc[nH]1)C(=O)N[C@@H](CC(N)=O)C(=O)N[C@@H](Cc1ccccc1)C(N)=O)C(C)C)C(C)C`, with “Non-Toxic”.
